According to patent US20200397763A1, “PARENTERAL FORMULATION MATERIALS AND METHODS FOR 40-O-CYCLIC HYDROCARBON ESTERS AND RELATED STRUCTURES” (Biotronik AG, priority 2018, published 2020):

Tests used:
[1] = prior art; blood plasma; 15 mg/kg; SEQ ID NO:1 with nanoparticles; cited from earlier work
[2] = Rat intravenous PK of the EtOH / SEQ ID NO:1 formulation without nanoparticles; format: in vivo, Sprague-Dawley rats; conditions: for AUC(0-inf): Sprague-Dawley, rat, rats, intravenous 15 mg/kg, EtOH / 20% SEQ ID NO:1 in saline, without nanoparticles, LCMS
Procedure: It is understood the concentration may be optimized according to desired dosing schemes, routes of administration, etc.
The PK studies were conducted around the formulation from Example I. Specifically, Sprague-Dawley rats were dosed intravenously at 15 mg/kg, with blood samples being collected prior to dosing, in order to establish baseline, then post dosing at set intervals up to 24 hours. Drug bioanalytical measurements were conducted by LCMS.
Results (AUCinf) reported in the prior art are from blood plasma, whereas the present results are from both plasma and whole blood. This was done to allow for direct comparison to the previous studies. Drug area under the curve versus time ((AUCinf), total drug dose exposure) was calculated accordingly.
Sirolimus (rapamycin) was used and formulated in accordance with those steps described previously at Example I. Specifically, sirolimus was combined with SEQ ID NO:1 but without nanoparticles and tested against the studies shown in the prior art, namely, sirolimus formulated with SEQ ID NO:1 but with nanoparticles.

SMILES: CO[C@H]1C[C@@H]2CC[C@@H](C)[C@@](O)(O2)C(=O)C(=O)N2CCCC[C@H]2C(=O)O[C@H]([C@H](C)C[C@@H]2CC[C@@H](O)[C@H](OC)C2)CC(=O)[C@H](C)/C=C(\C)[C@@H](O)[C@@H](OC)C(=O)[C@H](C)C[C@H](C)/C=C/C=C/C=C/1C [Sirolimus, rapamycin]
- AUCinf [1]: 6017 ± 647 ng·h/mL
- AUC(0-inf) ([2]; plasma): 5180 ± 130 ng·h/mL
- AUC(0-inf) ([2]; whole blood): 5060 ± 541 ng·h/mL
- difference between the AUCinf results of the current studies and the prior art ([2]; sirolimus without nanoparticles (current) versus with nanoparticles (prior art)): 20%
